{"source": "patent US20120207753A1", "about": "“METHODS OF USING CD44 FUSION PROTEINS TO TREAT CANCER” (CENTRE HOSPITALIER UNIVERSITAIRE VAUDOIS, priority 2009, published 2012)", "key": {"U87MG cells": {"test_system": "U87MG cells", "test": "Intracranial tumor growth and survival, transduced U87MG cells in Rag-1 mice", "assay_type": "in vivo, human", "conditions": "single dose BCNU 10 mg/kg iv or TMZ 5 mg/kg ip", "protocol": "(§1) FIG. 12. Antagonists of CD44 are effective therapeutic agents against human GBM in mouse models. A, U87MG and U251 cells were transduced with the retroviruses carrying empty vector and the expression constructs of hsCD44s-Fc, hsCD44v8-v10-Fc, and hsCD44v3-v10 and their serum free cell culture supernatants were collected and analyzed on Western blots using anti-CD44 antibody (Santa Cruz) or anti-human IgG antibody. The molecular weight bars correspond to 199 kDa and 116 kDa. B, 2×10^6 of the transduced U87MG and U251 cells were injected subcutaneously per mouse. Growth rates of the subcutaneous tumors were determined and expressed as the mean of tumor volume (mm^3)+/−SD. Six mice were used for each construct. C, Survival rates of mice following the intracranial injections of transduced U87MG (C-a) and U251 (C-b-c) cells infected with the retroviruses carrying the empty expression vectors, hsCD44s-Fc, hsCD44v8-v10-Fc, hsCD44v3-v10, hsCD44sR41A-Fc, or hsCD44v3-v10R41A-Fc constructs as indicated in the panels. […]\n(§2) Mice were used in accordance with the approved IACUC Protocol. […] Following injection, mice were closely monitored and the duration of their survival was recorded. […] Number of surviving mice was recorded. The survival rates were calculated as follows: survival rate (%)=(number of mice still alive/total number of experimental mice)×100%. […]"}, "U251 cells": {"test_system": "U251 cells", "test": "Intracranial tumor growth and survival, transduced U251 cells in Rag-1 mice", "assay_type": "in vivo, human", "conditions": "single dose BCNU 10 mg/kg iv or TMZ 5 mg/kg ip", "protocol": "as §1, §2"}}, "data": [{"smiles": "O=NN(CCCl)C(=O)NCCCl", "note": "[BCNU, carmustine]", "values": [{"measurement": "inhibition of intracranial glioma formation (median survival), drug combined with CD44 knockdown", "setting": "U87MG cells; intracranial U87MG-Luc depleted of CD44", "value": "synergistic inhibition of intracranial glioma formation"}, {"measurement": "inhibitory effect on glioma growth as single agent", "setting": "U87MG cells; intracranial U87MG-Luc", "value": "weak"}, {"measurement": "inhibition of intracranial glioma formation (median survival), drug combined with CD44 knockdown", "setting": "U251 cells; intracranial U251-Luc depleted of CD44", "value": "synergistic inhibition of intracranial glioma formation"}, {"measurement": "inhibitory effect on glioma growth as single agent", "setting": "U251 cells; intracranial U251-Luc", "value": "weak"}]}]}
